Patent US11517598B2 (priority 2016, dated 2022)
Entries after “also recorded” stand apart in the source; their conditions may differ. Read-outs that look alike come from different tables or passages of the source.

What was measured:
[1] = test system: oncolytic VSVΔ51 in 786-0 renal carcinoma cells
VSVwt in 786-0 cells = format: cell-based, human
[2] = test system: Measles virus in 786-0 cells; format: cell-based, human
[3] = test system: Sindbis virus in 786-0 cells; format: cell-based, human
[4] = test system: HSV-1 (mutant N212) in 786-0 cells; format: cell-based, human
[5] = test system: VSVΔ51 in GM38 fibroblasts; format: cell-based, human
[6] = test system: VSVΔ51 matrix (M) mRNA in 786-0 cells; format: cell-based, human
[7] = test system: VSVΔ51 matrix (M) mRNA in CT26-WT colon cancer cells; format: cell-based, mouse
[8] = test system: VSVΔ51-GFP in CT26WT and DBT tumor cores; format: cell-based, mouse
[9] = test system: VSVΔ51-GFP in normal lung, muscle and spleen tissue cores; format: cell-based, mouse
STAT1 = format: cell-based, human
STAT2 = format: cell-based, human
[10] = test system: CT26WT, 4T1, DBT, and Pan02 tumors; conditions: mouse, in vivo
CT26WT tumors = conditions: mouse
CT26-LacZ tumors = conditions: mouse, in vivo
bilateral DBT tumors = conditions: mouse, in vivo
[11] = test system: cytokine, chemokine and IFN stimulated gene expression in 786-0 cells; format: cell-based, human
[12] = test system: CXCL9 in various human cancer cell lines; format: cell-based
IFITM1 = format: cell-based, human
[13] = test system: various human and rodent cancer cell lines
[14] = mouse, in vivo

Chain of IFITM1 (P13164 whole entry): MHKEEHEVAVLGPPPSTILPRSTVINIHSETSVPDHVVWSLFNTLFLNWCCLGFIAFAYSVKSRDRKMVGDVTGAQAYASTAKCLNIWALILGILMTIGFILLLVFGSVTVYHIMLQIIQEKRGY

## Ammonium metavanadate
[1]
  VSVΔ51 growth (viral titer, GFP positive cell counts): effectively enhanced VSVΔ51 growth

## Vanadium(IV) oxide sulfate hydrate [VS]
[1]
  VSVΔ51 growth (viral titer, GFP positive cell counts): effectively enhanced VSVΔ51 growth

## Sodium orthovanadate
VSVwt in 786-0 cells
  wtVSV yield: modest improvements in wtVSV yield
[2]
  yield of Measles virus: improved
[3]
  yield of Sindbis virus: improved
[4]
  HSV-1 growth: robustly inhibited
[5]
  VSVΔ51 viral growth in normal cells: viral growth was not enhanced
[6]
  VSVΔ51 matrix (M) protein mRNA and/or viral genomes: increased the production of VSVΔ51 matrix (M) protein mRNA and/or viral genomes
[7]
  VSVΔ51 matrix (M) protein mRNA and/or viral genomes: increased the production of VSVΔ51 matrix (M) protein mRNA and/or viral genomes
[8]
  growth of VSVΔ51-GFP in tumor cores (fluorescence): robustly increased the growth of the virus in tumor cores
[9]
  growth of VSVΔ51-GFP in normal tissue cores (fluorescence): not in normal tissue cores
STAT1
  IFN-β induced phosphorylation of STAT1: not altered by treatment with vanadate
  IFNβ-induced STAT1 phosphorylation and nuclear accumulation: did not similarly affect STAT1
  localisation of activated STAT1 (immunofluorescence): translocated to the nucleus
  phosphorylation of STAT1 at baseline: increased by vanadate at baseline
STAT2
  IFNβ-induced phosphorylation of STAT2: inhibited the IFNβ-induced phosphorylation of STAT2
  STAT2 nuclear accumulation: reduced its nuclear accumulation
  localisation of STAT-2 (immunofluorescence): remained mostly in the cytoplasm
[10]
  survival, combination with VSVΔ51: significantly improved survival; also recorded: significantly prolonged over virus alone
  virus-associated luciferase gene expression (IVIS): robustly enhanced virus-associated luciferase gene expression
CT26WT tumors; in vivo
  T-cells within the tumor: increased accumulation of T-cells within the tumor
  re-challenge of cured mice with the same cancer cells: became immune to re-challenge
CT26WT tumors; pH 7
  in vivo virus-enhancing activity at pH 7: retained its activity
CT26-LacZ tumors
  enhancing effect on survival: completely abrogated
Bilateral DBT tumors
  tumor regression with monotherapy: some tumors did regress
  virus-associated luminescence: uniquely enhanced by vanadate in the injected tumors on the right side
[11]
  gene set-enrichment (GOrilla), compound alone: induced inflammatory responses, and immune system processes
[12]
  CXCL9 secretion (ELISA): vanadate-mediated increase
IFITM1
  protein expression levels of IFITM1: potently repressed
[1]
  effect on viral growth when given post infection: close to nil
  impact on viral growth with pre-treatment time: increasingly evident with increasing pre-treatment time
  number of virus-infected cells (GFP): marked increase in the number of virus-infected cells
  pro-viral activity with metal chelating agent: abrogated upon inclusion of L-Ascorbic Acid
  viral output (viral titer by plaque assay): significantly increase viral output
  virus-enhancing activity at different pH (protonation state): had no impact on its activity
  yield of VSVΔ51 in single and multi-step growth curves: more robustly enhanced the yield of VSVΔ51 when provided at low multiplicity of infection (MOI) compared to high MOI
[13]
  cytotoxicity (cell viability) with VSVΔ51 co-infection: A similar effect
[14]
  toxicity: evidence of toxicity was observed
[14]; pH 7
  toxicity: greatly reduced

## Vanadium(V) oxytriethoxide [VOx]
[1]
  VSVΔ51 growth (viral titer, GFP positive cell counts): effectively enhanced VSVΔ51 growth

## Chromium(VI) oxide [Chromium trioxide, reference compound]
[1]
  VSVΔ51 growth (viral titer): did enhance viral growth but only at a single dose tested
  toxicity (not shown): highly toxic in comparison to orthovanadate

## Tungsten [reference compound]
[1]
  VSVΔ51 growth (viral titer, GFP positive cell counts): neither Manganese, Molybdene, or Tungsten oxide salts could enhance VSVΔ51 growth

## potassium permanganate [Manganese, reference compound]
[1]
  VSVΔ51 growth (viral titer, GFP positive cell counts): neither Manganese, Molybdene, or Tungsten oxide salts could enhance VSVΔ51 growth

## CC(=O)N[C@@H](CS)C(=O)O [NAC, N-acetyl-L-cysteine, reference compound]
[1]
  effect of NAC on vanadate-enhanced viral spread (viral titer): did not abrogate vanadate's capacity to enhance viral spread

## Bis(maltolato) oxovanadium(IV) [BMOV]
[1]
  VSVΔ51 growth (viral titer, GFP positive cell counts): effectively enhanced VSVΔ51 growth
